# Earlier results as cited in patent publication US7777051B2, “Asymmetric benzimidazoles and related compounds as potassium channel modulators” (Icagen, Inc., priority 2003, dated 2010).
# Target: SK2 subtype channels (Rattus norvegicus, UniProt P70604)
# Conditions: patch clamp
row,Compound,block of SK2 channel currents
1,CN(C)CCC=C1c2ccccc2CCc2ccccc21 [amitriptyline],block SK2 channel currents with micromolar affinity
2,Nc1c2c(nc3ccccc13)CCCC2 [tacrine],block SK2 channel currents with micromolar affinity
3,NC(=O)N1c2ccccc2C=Cc2ccccc21 [carbamazepine],block SK2 channel currents with micromolar affinity

# Target: T1, recombinant human SK4 (hIK1 or hKCa4) channels (Homo sapiens, UniProt O15554+P0DP23)
# T1 construct: host or cells: HEK 293 cells (transfected, membrane patches)
# Conditions: applied to the inside of membrane patches, concentrations up to 100 μM; HEK 293
row,Compound,activation of SK4 channels
1,cobalt,did not activate the SK4 channels
2,lead,activated SK4 channels in a concentration-dependent manner
3,magnesium,did not activate the SK4 channels
4,strontium,activated SK4 channels in a concentration-dependent manner
5,Barium,activated SK4 channels in a concentration-dependent manner
6,calcium,activated SK4 channels in a concentration-dependent manner
7,iron,did not activate the SK4 channels
8,cadmium,activated SK4 channels in a concentration-dependent manner
9,zinc,did not activate the SK4 channels

# Tested on: SK channels
# Conditions: not given
row,Compound,inhibition of SK channels
1,O=C1N(c2ccccc2)c2ccccc2C1(Cc1ccncc1)Cc1ccncc1 [linopirdine],ineffective at inhibiting SK channels
